In the SangsterLogP compilation:
Square brackets hold non-standard residues; d marks the D form. Peptide text beside a SMILES is read from it. NMeF = CN[CH](Cc1ccccc1)C(=O)O

Legend:
[1] = method code SF-CR+AS, from DOI: 10.1007/bf00500994, PMID: 4267539; conditions: pH 7.4
[2] = method code HPLC, from DOI: 10.1016/j.bmcl.2004.01.062, PMID: 15026043; conditions: pH 5.5
[3] = method code SF-HPLC, from DOI: 10.1002/jccs.199500138
[4] = method code SF-HPLC, from DOI: 10.1002/jlac.1995199512306
[5] = method code SF-GLC, from DOI: 10.1002/jps.2600620103, PMID: 4734195
[6] = method code SF-HPLC, from DOI: 10.1016/0045-6535(86)90532-1; conditions: pH 6.5
[7] = method code SF-RC, from DOI: 10.1023/a:1015867608405, PMID: 1614980; conditions: pH 7.4
[8] = not given; remark: listed apart in the source
[9] = method code SF-HPLC, from DOI: 10.1016/0378-5173(91)90200-8; conditions: pH 7.4
[10] = method code SF, from DOI: 10.1515/znc-1979-1128; conditions: pH 7.4
[11] = not given; remark: listed apart in the source
[12] = not given; remark: listed apart in the source
[13] = method code SF-HPLC, from DOI: 10.1021/jm00169a024, PMID: 2194033; conditions: pH 7.4
[14] = not given; remark: listed apart in the source
[15] = not given; remark: listed apart in the source
[16] = method code SF-HPLC, from DOI: 10.2174/1871523013666141114203105, PMID: 25403255; conditions: pH 7.4
[17] = not given; remark: listed apart in the source
[18] = method code SF, from PMID: 26783178
[19] = method code HPLC, from DOI: 10.1016/j.ejmech.2015.05.022, PMID: 26005028; conditions: pH 7.1
[20] = method code SF-AS, from DOI: 10.1002/jps.2600710122
[21] = not given; remark: listed apart in the source
[22] = method code SF-AS, from DOI: 10.1016/j.ejmech.2011.02.056, PMID: 21420207
[23] = method code SF-AS, from Lee, B.; Shin, J.; Lim, M.; Jang, T.; Park, J.; Kim, K.; Kang, W. (1997). Partition Property of 5-Nitrothiopyrimidine Nucleoside. Bull Korean Chem Soc, 18(7)734-736.; conditions: pH 7.0
[24] = method code SF-AS, from DOI: 10.1021/jm0104926, PMID: 11960499
[25] = not given; remark: listed apart in the source

For `O=CC(Cl)(Cl)Cl`, the logD [1] was 1.61.
In the case of `CN(C)C(=O)Oc1ccc(CC(NC(=O)C2N(S(=O)(=O)c3cnn(C)c3)CSC2(C)C)C(=O)OCC(C)(C)C)cc1` (stereo unspecified), the logD [2] is reported as 3.42.
In the case of `CC(=CCCC(C)C1CC(O)C2(C)C3=CCC4C(C)(CCC(O)C4(C)C)C3=CCC12C)C(=O)O` (stereo unspecified), the logP [3] is reported as 2.69.
`ClC(Cl)Br` showed a logP of 2.1.
`Cc1cn(C2CC(N=[N+]=[N-])C(COP(=O)(OCc3cccc([N+](=O)[O-])c3)OCC3OC(n4cc(C)c(=O)[nH]c4=O)CC3N=[N+]=[N-])O2)c(=O)[nH]c1=O` (stereo unspecified) showed a logP [4] of 0.99.
Work on `CC(O)C(F)(F)F` (stereo unspecified) yielded a logP [5] of 0.71.
`CCCCNC(=S)NCCCC` gave a logD [6] of 2.75.
Work on `CC(=O)NC(Cc1ccccc1)C(=O)NC(Cc1ccccc1)C(=O)N(C)C(Cc1ccccc1)C(N)=O` (stereo not drawn) (Ac-Phe-Phe-[NMeF]-NH2; configuration not given here) yielded a logD [7] of 2.63.
With `CC(C)CCC[C@@H](C)[C@H]1CC[C@H]2C3=CC=C4C[C@@H](O)CC[C@]4(C)[C@H]3CC[C@]12C` the logP [8] was 8.65.
Work on `CCC(C(=O)OCc1ccc(COC(=O)C(CC)C(COC(C)=O)Cc2cncn2C)cc1)C(COC(C)=O)Cc1cncn1C` (stereo unspecified) yielded a logD [9] of 3.04.
Work on `CC1=C(C)C(O)N(c2ccc(C)c(C)c2)C1=O` (stereo unspecified) yielded a logD [10] of 2.36.
`ClC(Br)Br` showed a logP of 2.24.
With `CCCC` the logP [11] was 2.74.
Molecule `Fc1ccccc1` has a logP [12] of 2.01.
In the case of `CCOC(=O)CC(Cc1cncn1C)C(CC)C(=O)OCc1ccc(COC(=O)C(CC)C(CC(=O)OCC)Cc2cncn2C)cc1` (stereo unspecified), the logD [9] is reported as 4.08.
For `ClC(Cl)(Cl)Cl`, the logP [11] was 2.59.
`CCN1CC(C(O)[C@H](CC2CCCCC2)NC(=O)[C@H](Cc2cnc[nH]2)NC(=O)[C@@H](CC(=O)N(C)CCOC)Cc2ccccc2)OC1=O` (stereo partly specified) gave a logD [13] of 2.45.
`CC(=O)OCCCCOC(C)=O` gave a logP [14] of 0.01.
Work on `OCC(Cl)(Cl)Cl` yielded a logD [1] of 1.42.
With `Cc1cn(C2CC(N=[N+]=[N-])C(COP(=O)(OCc3ccc(C#N)cc3)OCC3OC(n4cc(C)c(=O)[nH]c4=O)CC3N=[N+]=[N-])O2)c(=O)[nH]c1=O` (stereo unspecified) the logP [4] was 0.91.
Work on `C=C1CC[C@H](O)C/C1=C/C=C1\CCC[C@]2(C)[C@@H]([C@H](C)CCCC(C)C)CC[C@@H]12` yielded a logP [8] of 10.2.
`CCCCCCCCc1ccc(OCC(=O)Cn2ccc3cc(C(=O)O)ccc32)cc1` gave a logP [15] of 6.3.
`C=CCc1ccc(OC(=O)COC(=O)Cc2ccccc2Nc2c(Cl)cccc2Cl)c(OC)c1` gave a logD [16] of 5.13.
With `CC[C@H]1OC(=O)[C@H](C)[C@@H](O[C@H]2C[C@@](C)(OC)[C@@H](O)[C@H](C)O2)[C@H](C)[C@@H](O[C@@H]2O[C@H](C)C[C@H](N(C)C)[C@H]2O)[C@](C)(O)C[C@@H](C)C(=O)[C@H](C)[C@@H](O)[C@]1(C)O` the logP [17] was 3.06.
`CCCCCCCCc1ccc(OCC(=O)Cn2cc(C(=O)OC)c3cc(C(=O)O)ccc32)cc1` gave a logP [15] of 6.2.
Work on `CNC(=O)C(Cc1ccccc1)N(C)C(=O)C(Cc1ccccc1)N(C)C(=O)C(Cc1ccccc1)N(C)C(C)=O` (stereo unspecified) (Ac-[NMeF]-[NMeF]-[NMeF]-NHMe; configuration not given here) yielded a logD [7] of 3.24.
Molecule `Cc1ccc(N2C(=O)[C@H](CCCNS(=O)(=O)c3ccc(OC(F)(F)F)cc3)[C@H]2c2ccc([N+](=O)[O-])cc2)cc1` has a logP [18] of 4.55.
`OCC(Cl)Cl` showed a logP [5] of 0.37.
For `CC[C@H]1OC(=O)C[C@@H](O)[C@H](C)[C@@H](O[C@@H]2O[C@H](C)C[C@H](N(C)C)[C@H]2O)[C@@H](CC=O)C[C@@H](C)C(=O)/C=C/[C@]2(C)O[C@H]2[C@@H]1C`, the logP [17] was 2.19.
Work on `CCCCCCNC(=O)CBr` yielded a logD [19] of 2.18.
Work on `Nc1nc(NC(=O)C(F)(F)C(F)(F)C(F)(F)F)n[nH]1` yielded a logP [20] of 1.54.
Molecule `CC(=O)O[C@@H]1C[C@@H]([C@@H](C)CC/C=C(\C)C(=O)O)[C@]2(C)CC=C3C(=CCC4C(C)(C)[C@H](O)CC[C@@]34C)[C@@]12C` (stereo partly specified) has a logP [3] of 2.71.
For `Cc1c(-c2cnccn2)ssc1=S`, the logP [21] was 2.79.
Molecule `CC(C)=O` has a logP [12] of -0.17.
`COc1ccccc1OC(=O)COC(=O)Cc1ccccc1Nc1c(Cl)cccc1Cl` gave a logD [16] of 4.6.
With `CCCCCCCCCCCC(=O)N[C@H]1C[C@H](O[C@H]2C[C@](O)(C(=O)CO)Cc3c(O)c4c(c(O)c32)C(=O)c2c(OC)cccc2C4=O)O[C@@H](C)[C@H]1O` the logP [22] was 1.96.
Molecule `O=[N+]([O-])c1c[nH]c(=S)[nH]c1=S` has a logD [23] of 0.52.
For `NC(=O)c1cssc1=S`, the logP [21] was 0.3.
Work on `COC(=O)CBr` yielded a logD [19] of 0.77.
In the case of `FC(Cl)C(F)(F)C1(Br)N=N1` (stereo unspecified), the logP [24] is reported as 2.18.
For `O=C1[C@H](CC[C@H](O)c2ccc(F)cc2)[C@@H](c2ccc(O)cc2)N1c1ccc(F)cc1`, the logP [18] was 3.64.
For `c1ncncn1`, the logD [10] was -0.73.
Molecule `CCCCCCCCc1ccc(OCC(=O)Cn2cc(C(=O)C(C)C)c3cc(C(=O)O)ccc32)cc1` has a logP [15] of 6.6.
Molecule `Cc1cn(C2CC(N=[N+]=[N-])C(COP(=O)(OCc3ccccc3)OCC3OC(n4cc(C)c(=O)[nH]c4=O)CC3N=[N+]=[N-])O2)c(=O)[nH]c1=O` (stereo unspecified) has a logP [4] of 1.34.
In the case of `C=CCBr`, the logP [14] is reported as 1.9.
In the case of `CCC#N`, the logP [25] is reported as 0.1.
Work on `CC(C)OC(=O)C(Cc1ccc(OC(=O)N(C)C)cc1)NC(=O)C1N(S(=O)(=O)c2cnn(C)c2)CSC1(C)C` (stereo unspecified) yielded a logD [2] of 2.46.
With `CCCCCCCC(=O)N[C@H]1C[C@H](O[C@H]2C[C@](O)(C(=O)CO)Cc3c(O)c4c(c(O)c32)C(=O)c2c(OC)cccc2C4=O)O[C@@H](C)[C@H]1O` the logP [22] was 1.81.
With `CC(=O)N(C)C(Cc1ccccc1)C(=O)N(C)C(Cc1ccccc1)C(=O)N(C)C(Cc1ccccc1)C(N)=O` (stereo unspecified) (Ac-[NMeF]-[NMeF]-[NMeF]-NH2; configuration not given here) the logD [7] was 2.92.
In the case of `CC1=C(C/C=C(\C)CCC[C@H](C)CCC[C@H](C)CCCC(C)C)C(=O)c2ccccc2C1=O`, the logP [8] is reported as 11.7.
`CCN1CC(C(O)[C@H](CC2CCCCC2)NC(=O)[C@H](Cc2cnc[nH]2)NC(=O)[C@@H](Cc2ccc(OC)cc2)NC(=O)N2CCOCC2)OC1=O` (stereo partly specified) gave a logD [13] of 2.11.
Molecule `CCN1CC(C(O)[C@H](CC2CCCCC2)NC(=O)[C@H](Cc2cnc[nH]2)NC(=O)[C@@H](CC(=O)N(C)CCOCOC)Cc2ccccc2)OC1=O` (stereo partly specified) has a logD [13] of 2.49.
In the case of `CC(=O)OC1CCC2(C)C3=CCC4(C)C(C(C)CCC=C(C)C(=O)O)CC(O)C4(C)C3=CCC2C1(C)C` (stereo unspecified), the logP [3] is reported as 2.72.
`FC(F)(C(Cl)Br)C1N=N1` (stereo unspecified) showed a logP [24] of 1.9.
Molecule `CCc1ccc(S(=O)(=O)NCCCC2C(=O)N(c3ccc(C)cc3)C2c2ccc(NS(C)(=O)=O)cc2)cc1` (stereo unspecified) has a logP [18] of 3.62.
`CC(=O)Nc1n[nH]c(NC(C)=O)n1` showed a logP [20] of -1.01.
`CCCCCCCCCCCCCCCC(=O)N[C@H]1C[C@H](O[C@H]2C[C@](O)(C(=O)CO)Cc3c(O)c4c(c(O)c32)C(=O)c2c(OC)cccc2C4=O)O[C@@H](C)[C@H]1O` gave a logP [22] of 2.19.
`S=C1NCCN1` gave a logD [6] of -0.66.
Work on `CCC(C(=O)OCc1ccc(COC(=O)C(CC)C(COC(=O)CC(=O)OC)Cc2cncn2C)cc1)C(COC(=O)CC(=O)OC)Cc1cncn1C` (stereo unspecified) yielded a logD [9] of 2.76.
In the case of `CO[C@@H]1[C@@H](O[C@@H]2O[C@H](C)[C@@H](O)[C@H](N(C)C)[C@H]2O)[C@@H](CC=O)C[C@@H](C)C(=O)/C=C\[C@H]2O[C@H]2C[C@@H](C)OC(=O)C[C@H]1OC(C)=O`, the logP [17] is reported as 0.3.
`Nc1ccc(S(=O)(=O)NC(=O)c2ccccc2)cc1` gave a logP [25] of 1.46.
